Common to all, as to assay type: cell-based, human
For one assay, the system named is NOTCH reporter activity. Kind of assay: NOTCH reporter vector assay in OMM1 uveal melanoma cells. On the procedure:
(§1) FIG. 9: NOTCH signaling controls uveal melanoma cell growth and migration. (A) OMIVI1 uveal melanoma cells were transfected with the NOTCH reporter vector before being treated or not with DLL4 1μg/ml in absence or presence of BMS-906024 10 μM. Data shown are mean +SD of three experiments. ***p<0.001 and *p<0.05. (B) 3D spheroid assays of 92.1 cells exposed to DAPT 10μg/ml or BMS-906024 lOpM for 96 h. Surface of the imaged spheroid area was determined. ***p<0.001. Representative images are shown. (C) Boyden chambers experiments with 92.1 cells treated or not with DLL4 1 μg/ml. Data shown are mean+SD of three experiments. **p<0.01. Representative images are shown.
Human uveal melanoma cell lines Me127051, 92.152, OMM2.551 were grown in RPMI glutamax supplemented with 10% FBS, OMM153 were grown in DMEM glutamax supplemented with Sodium Pyruvate 1%, MEM Essential Vitamin Mixture 1%, NEAA 1%, Hepes 1%, 10% FBS, MP46, MP65 (from ATCC) were grown in DMEM/F12 w/Glutamine 10% FBS, Glutamax 2mM, Insulin-Transferin-Selenium 0.5x at 37° C. in a humidified atmosphere containing 5% CO2. LipofectamineTM RNAiMAX and opti-MEM medium were purchased from Invitrogen (San Diego, CA, USA). BMS-906024 (#BM0018) and DAPT (#5942) were obtained from Sigma, DLL4 from R&D systems (#1506-D4-050).

For the next assay, the system named is 92.1 cells. Kind of assay: Boyden chamber migration of 92.1 cells. Particulars: DLL4 1 μg/ml. On the procedure: as §1
FIG. 11: HES6 inhibition impairs metastatic uveal melanoma cells motile ability. Migration of 92.1 cells expressing doxycycline-inducible control or HES6 shRNA in presence of 1 μg/ml doxycycline for 48 hrs in presence or absence of DLL4 1 μg/ml. ***p<0.001. Representative images are shown.
Cell migration was assessed using a modified Boyden chamber assay with 8-μm pore filter inserts for 24-well plates (BD Bioscience). Cells were seeded on the upper chamber of a trans-well and DMEM 7% FBS placed into the lower chamber. Cells adherent to the underside of the filters were fixed with 4% PFA, stained with 0.4% crystal violet and five random fields at x20 magnification were counted. […]

For assay [1], the system named is Me1270 primary uveal melanoma cells. Kind of assay: Migration of Me1270 cells. The conditions noted are these: Me1270 cells expressing doxycycline-inducible HES6 shRNA, doxycycline 1 μg/ml 48 hrs, DLL4 1 μg/ml. The text has this: FIG. 6: HES6 expression in primary uveal melanomas controls the motile ability. (A) Relative expression of HES/HEY gene family (TCGA dataset). (B) Human primary uveal Me1270 melanoma cells were transfected with a control siRNA (siCtl) or two different pools of multiple siRNA targeting HES6 (siHES6#1 and siHES6#2). siRNA efficacy is shown by RT-QPCR. (C) Migration Me1270 cells transfected with the indicated siRNA. ***p<0.001. Representative images are shown. (D) Colony formation assay of Me1270 cells transfected with the indicated siRNA. ***p<0.001. Representative images are shown.
FIG. 10: HES6 signaling is a key driver of aggressive and motile phenotypes. Migration of Me1270 cells expressing doxycycline-inducible control or HES6 shRNA in presence of 1 μg/ml doxycycline for 48 hrs in presence or absence of DLL4 1 *g/ml. ***p<0.001. Representative images are shown.
Briefly, a single pulse of 50 nM of HES6 siRNA (Dharmacon L-008408-00-0005 and […]
Cell migration was assessed using a modified Boyden chamber assay with 8-μm pore filter inserts for 24-well plates (BD Bioscience). […] Cells adherent to the underside of the filters were fixed with 4% PFA, stained with 0.4% crystal violet and five random fields at x20 magnification were counted. […]

Assay [2] concerns 92.1 primary uveal melanoma cells. Nature of the assay: 3D spheroid (melanosphere) assay of 92.1 cells. Particulars: 96 h. The text has this: FIG. 8: HES6 knockdown inhibits uveal melanoma anchorage-dependent and—independent cell growth. (A) Q-RT-PCR showing HES6 level in OMM2.5 metastatic melanoma cells transfected with a control siRNA (siCtl) or two different pools of multiple siRNA targeting HES6 (siHES6#1 and siHES6#2). (B-C) Colony formation assay of OMM2.5 and OMM1 metastatic uveal melanoma cells treated with control siRNA or with two different pools of multiple siRNA targeting HES6 (siHES6#1 and siHES6#2). Representative images are shown. (D) 92.1 primary uveal melanoma cells expressing doxycycline-inducible control or two different HES6 shRNA in presence of 1 μg/ml doxycycline for 72 hrs. Efficiency is shown by RT-QPCR. ***p<0.001 (E) Colony formation assay of 92.1 primary uveal melanoma cells expressing doxycycline-inducible control or two different HES6 shRNA. Representative images are shown. Crystal violet was next dissolved and measured at 490 nm. ***p<0.001. (F) 3D spheroid assays of 92.1 cells expressing doxycycline-inducible control or HES6 shRNA in presence of 1 μg/ml doxycycline for 96 hrs. Surface of the imaged spheroid area was determined. ***p<0.001. Representative images are shown.
FIG. 9: NOTCH signaling controls uveal melanoma cell growth and migration. […] Surface of the imaged spheroid area was determined. ***p<0.001. […]

This is an account of results in patent publication US20230416830A1, “METHODS AND COMPOSITIONS FOR PREDICTING AND TREATING UVEAL MELANOMA” (INSERM (INSTITUT NATIONAL DE LA SANTÉ ET DE LA RECHERCHE …, priority 2020, published 2023).

Regarding “DLL4: Delta-like ligand 4, NOTCH natural ligand, from R&D systems (#1506-D4-050)”, the NOTCH reporter activity result in the assay with NOTCH reporter activity (DLL4 1μg/ml) is listed as “increased”. Besides, the “migration in HES6 knockdown cells” value in the assay with 92.1 cells (92.1 cells expressing doxycycline-inducible HES6 shRNA, doxycycline 1 μg/ml 48 hrs) is reported as “could no longer increased migration”; in assay [1], “could no longer increased migration”. Also, the “uveal melanoma cell migration” value with 92.1 cells (92.1 cells) was “enhanced”.

On to `O=C(O)CN(CC(=O)O)CC(O)CN(CC(=O)O)CC(=O)O` [DAPT, diaminopropanol tetraacetic acid], for which the “melanosphere formation (surface of spheroid area)” value in assay [2] (DAPT 10μg/ml) is “reduced”.

`CN1C(=O)[C@@H](NC(=O)[C@H](CCC(F)(F)F)[C@H](CCC(F)(F)F)C(N)=O)N=C(c2ccccc2)c2ccccc21` [BMS-906024, reference compound]: in the assay with NOTCH reporter activity (DLL4 1μg/ml in presence of BMS-906024 10 μM), the “effect on DLL4-increased NOTCH reporter activity” value is recorded as “inhibited”. The “melanosphere formation (surface of spheroid area)” value in assay [2] (BMS-906024 lOpM) is listed as “reduced”.
